Assay: Quantitative whole body autoradiography
Type: in vivo, rat
Details: [3H] Ticagrelor 3 mg/kg
[1] = pregnant female rat (Day 18 of gestation), 5 min
[2] = pregnant female rat (Day 18 of gestation), 0.5 h
[3] = pregnant female rat (Day 18 of gestation), 2 h
[4] = pregnant female rat (Day 18 of gestation), 4 h

CCCSc1nc(N[C@@H]2C[C@H]2c2ccc(F)c(F)c2)c2nnn([C@@H]3C[C@H](OCCO)[C@@H](O)[C@H]3O)c2n1 [Ticagrelor]
Adrenal gland radioactivity (male rat, 5 min): 11.35 μg equivalent/g | Adrenal gland radioactivity, fold of blood value (male rat, 5 min): 5.33 fold of blood value | Blood (LSC) radioactivity (male rat, 5 min): 2.131 μg equivalent/g | Brain radioactivity (male rat, 5 min): 0.05 μg equivalent/g | Brain radioactivity, fold of blood value (male rat, 5 min): 0.02 fold of blood value | Brown fat radioactivity (male rat, 5 min): 1.35 μg equivalent/g | Brown fat radioactivity, fold of blood value (male rat, 5 min): 0.63 fold of blood value | Eye radioactivity (male rat, 5 min): 0.50 μg equivalent/g | Eye radioactivity, fold of blood value (male rat, 5 min): 0.23 fold of blood value | Heart radioactivity (male rat, 5 min): 9.15 μg equivalent/g | Heart radioactivity, fold of blood value (male rat, 5 min): 4.29 fold of blood value | Kidney radioactivity (male rat, 5 min): 10.62 μg equivalent/g | Kidney radioactivity, fold of blood value (male rat, 5 min): 4.98 fold of blood value | Liver radioactivity (male rat, 5 min): 16.11 μg equivalent/g | Liver radioactivity, fold of blood value (male rat, 5 min): 7.56 fold of blood value | Lung radioactivity (male rat, 5 min): 7.31 μg equivalent/g | Lung radioactivity, fold of blood value (male rat, 5 min): 3.43 fold of blood value | Pancreas radioactivity (male rat, 5 min): 7.35 μg equivalent/g | Pancreas radioactivity, fold of blood value (male rat, 5 min): 3.45 fold of blood value | Pituitary gland radioactivity (male rat, 5 min): 8.03 μg equivalent/g | Pituitary gland radioactivity, fold of blood value (male rat, 5 min): 3.77 fold of blood value | Salivary gland radioactivity (male rat, 5 min): 3.66 μg equivalent/g | Salivary gland radioactivity, fold of blood value (male rat, 5 min): 1.72 fold of blood value | Skeletal muscle radioactivity (male rat, 5 min): 3.15 μg equivalent/g | Skeletal muscle radioactivity, fold of blood value (male rat, 5 min): 1.48 fold of blood value | Spinal cord radioactivity (male rat, 5 min): 0.05 μg equivalent/g | Spinal cord radioactivity, fold of blood value (male rat, 5 min): 0.02 fold of blood value | Spleen radioactivity (male rat, 5 min): 4.86 μg equivalent/g | Spleen radioactivity, fold of blood value (male rat, 5 min): 2.28 fold of blood value | Stomach wall radioactivity (male rat, 5 min): 7.11 μg equivalent/g | Stomach wall radioactivity, fold of blood value (male rat, 5 min): 3.34 fold of blood value | Thymus radioactivity (male rat, 5 min): 0.99 μg equivalent/g | Thymus radioactivity, fold of blood value (male rat, 5 min): 0.46 fold of blood value | Thyroid gland radioactivity (male rat, 5 min): 7.84 μg equivalent/g | Thyroid gland radioactivity, fold of blood value (male rat, 5 min): 3.68 fold of blood value | Adrenal gland radioactivity (male rat, 0.5 h): 5.26 μg equivalent/g | Adrenal gland radioactivity, fold of blood value (male rat, 0.5 h): 5.16 fold of blood value | Blood (LSC) radioactivity (male rat, 0.5 h): 1.02 μg equivalent/g | Brain radioactivity (male rat, 0.5 h): 0.04/0.04 μg equivalent/g | Brain radioactivity, fold of blood value (male rat, 0.5 h): 0.04/0.04 fold of blood value | Brown fat radioactivity (male rat, 0.5 h): 0.95 μg equivalent/g | Brown fat radioactivity, fold of blood value (male rat, 0.5 h): 0.93 fold of blood value | Eye radioactivity (male rat, 0.5 h): 0.04/0.04 μg equivalent/g | Eye radioactivity, fold of blood value (male rat, 0.5 h): 0.04/0.04 fold of blood value | Heart radioactivity (male rat, 0.5 h): 4.94 μg equivalent/g | Heart radioactivity, fold of blood value (male rat, 0.5 h): 4.84 fold of blood value | Kidney radioactivity (male rat, 0.5 h): 6.77 μg equivalent/g | Kidney radioactivity, fold of blood value (male rat, 0.5 h): 6.64 fold of blood value | Liver radioactivity (male rat, 0.5 h): 8.44 μg equivalent/g | Liver radioactivity, fold of blood value (male rat, 0.5 h): 8.27 fold of blood value | Lung radioactivity (male rat, 0.5 h): 3.90 μg equivalent/g | Lung radioactivity, fold of blood value (male rat, 0.5 h): 3.82 fold of blood value | Pancreas radioactivity (male rat, 0.5 h): 7.83 μg equivalent/g | Pancreas radioactivity, fold of blood value (male rat, 0.5 h): 7.68 fold of blood value | Pituitary gland radioactivity (male rat, 0.5 h): 7.03 μg equivalent/g | Pituitary gland radioactivity, fold of blood value (male rat, 0.5 h): 6.89 fold of blood value | Salivary gland radioactivity (male rat, 0.5 h): 5.57 μg equivalent/g | Salivary gland radioactivity, fold of blood value (male rat, 0.5 h): 5.46 fold of blood value | Skeletal muscle radioactivity (male rat, 0.5 h): 3.26 μg equivalent/g | Skeletal muscle radioactivity, fold of blood value (male rat, 0.5 h): 3.20 fold of blood value | Spinal cord radioactivity (male rat, 0.5 h): 0.04/0.04 μg equivalent/g | Spinal cord radioactivity, fold of blood value (male rat, 0.5 h): 0.04/0.04 fold of blood value | Spleen radioactivity (male rat, 0.5 h): 3.81 μg equivalent/g | Spleen radioactivity, fold of blood value (male rat, 0.5 h): 3.74 fold of blood value | Stomach wall radioactivity (male rat, 0.5 h): 7.17 μg equivalent/g | Stomach wall radioactivity, fold of blood value (male rat, 0.5 h): 7.03 fold of blood value | Thymus radioactivity (male rat, 0.5 h): 1.28 μg equivalent/g | Thymus radioactivity, fold of blood value (male rat, 0.5 h): 1.25 fold of blood value | Thyroid gland radioactivity (male rat, 0.5 h): 3.85 μg equivalent/g | Thyroid gland radioactivity, fold of blood value (male rat, 0.5 h): 3.77 fold of blood value | Adrenal gland radioactivity (male rat, 2 h): 1.19 μg equivalent/g | Adrenal gland radioactivity, fold of blood value (male rat, 2 h): 2.57 fold of blood value | Blood (LSC) radioactivity (male rat, 2 h): 0.463 μg equivalent/g | Brain radioactivity (male rat, 2 h): 0.02 μg equivalent/g | Brain radioactivity, fold of blood value (male rat, 2 h): 0.04 fold of blood value | Brown fat radioactivity (male rat, 2 h): 0.46 μg equivalent/g | Brown fat radioactivity, fold of blood value (male rat, 2 h): 0.99 fold of blood value | Eye radioactivity (male rat, 2 h): 0.01 μg equivalent/g | Eye radioactivity, fold of blood value (male rat, 2 h): 0.02 fold of blood value | Heart radioactivity (male rat, 2 h): 1.73 μg equivalent/g | Heart radioactivity, fold of blood value (male rat, 2 h): 3.74 fold of blood value | Kidney radioactivity (male rat, 2 h): 2.22 μg equivalent/g | Kidney radioactivity, fold of blood value (male rat, 2 h): 4.79 fold of blood value | Liver radioactivity (male rat, 2 h): 3.20 μg equivalent/g | Liver radioactivity, fold of blood value (male rat, 2 h): 6.97 fold of blood value | Lung radioactivity (male rat, 2 h): 2.09 μg equivalent/g | Lung radioactivity, fold of blood value (male rat, 2 h): 4.51 fold of blood value | Pancreas radioactivity (male rat, 2 h): 2.78 μg equivalent/g | Pancreas radioactivity, fold of blood value (male rat, 2 h): 6.00 fold of blood value | Pituitary gland radioactivity (male rat, 2 h): 1.84 μg equivalent/g | Pituitary gland radioactivity, fold of blood value (male rat, 2 h): 3.97 fold of blood value | Salivary gland radioactivity (male rat, 2 h): 2.14 μg equivalent/g | Salivary gland radioactivity, fold of blood value (male rat, 2 h): 4.62 fold of blood value | Skeletal muscle radioactivity (male rat, 2 h): 1.48 μg equivalent/g | Skeletal muscle radioactivity, fold of blood value (male rat, 2 h): 3.20 fold of blood value | Spinal cord radioactivity (male rat, 2 h): 0.02 μg equivalent/g | Spinal cord radioactivity, fold of blood value (male rat, 2 h): 0.04 fold of blood value | Spleen radioactivity (male rat, 2 h): 1.51 μg equivalent/g | Spleen radioactivity, fold of blood value (male rat, 2 h): 3.29 fold of blood value | Stomach wall radioactivity (male rat, 2 h): 2.31 μg equivalent/g | Stomach wall radioactivity, fold of blood value (male rat, 2 h): 4.99 fold of blood value | Thymus radioactivity (male rat, 2 h): 1.37 μg equivalent/g | Thymus radioactivity, fold of blood value (male rat, 2 h): 2.96 fold of blood value | Thyroid gland radioactivity (male rat, 2 h): 2.60 μg equivalent/g | Thyroid gland radioactivity, fold of blood value (male rat, 2 h): 5.62 fold of blood value | Adrenal gland radioactivity (male rat, 4 h): 0.81 μg equivalent/g | Adrenal gland radioactivity, fold of blood value (male rat, 4 h): 2.24 fold of blood value | Blood (LSC) radioactivity (male rat, 4 h): 0.361 μg equivalent/g | Brain radioactivity (male rat, 4 h): 0.02 μg equivalent/g | Brain radioactivity, fold of blood value (male rat, 4 h): 0.06 fold of blood value | Brown fat radioactivity (male rat, 4 h): 0.52 μg equivalent/g | Brown fat radioactivity, fold of blood value (male rat, 4 h): 1.44 fold of blood value | Eye radioactivity (male rat, 4 h): 0.14 μg equivalent/g | Eye radioactivity, fold of blood value (male rat, 4 h): 0.39 fold of blood value | Kidney radioactivity (male rat, 4 h): 1.74 μg equivalent/g | Kidney radioactivity, fold of blood value (male rat, 4 h): 4.87 fold of blood value | Liver radioactivity (male rat, 4 h): 2.42 μg equivalent/g | Liver radioactivity, fold of blood value (male rat, 4 h): 6.70 fold of blood value | Lung radioactivity (male rat, 4 h): 1.55 μg equivalent/g | Lung radioactivity, fold of blood value (male rat, 4 h): 4.29 fold of blood value | Pancreas radioactivity (male rat, 4 h): 2.08 μg equivalent/g | Pancreas radioactivity, fold of blood value (male rat, 4 h): 5.76 fold of blood value | Pituitary gland radioactivity (male rat, 4 h): 1.65 μg equivalent/g | Pituitary gland radioactivity, fold of blood value (male rat, 4 h): 4.57 fold of blood value | Salivary gland radioactivity (male rat, 4 h): 1.59 μg equivalent/g | Salivary gland radioactivity, fold of blood value (male rat, 4 h): 4.40 fold of blood value | Skeletal muscle radioactivity (male rat, 4 h): 1.16 μg equivalent/g | Skeletal muscle radioactivity, fold of blood value (male rat, 4 h): 3.21 fold of blood value | Spinal cord radioactivity (male rat, 4 h): 0.02 μg equivalent/g | Spinal cord radioactivity, fold of blood value (male rat, 4 h): 0.06 fold of blood value | Spleen radioactivity (male rat, 4 h): 0.82 μg equivalent/g | Spleen radioactivity, fold of blood value (male rat, 4 h): 2.27 fold of blood value | Stomach wall radioactivity (male rat, 4 h): 1.32 μg equivalent/g | Stomach wall radioactivity, fold of blood value (male rat, 4 h): 3.66 fold of blood value | Thymus radioactivity (male rat, 4 h): 1.33 μg equivalent/g | Thymus radioactivity, fold of blood value (male rat, 4 h): 3.68 fold of blood value | Thyroid gland radioactivity (male rat, 4 h): 1.19 μg equivalent/g | Thyroid gland radioactivity, fold of blood value (male rat, 4 h): 3.30 fold of blood value | Blood (LSC) radioactivity [1]: 2.474 μg equivalent/g | Fetus radioactivity [1]: 0.03 μg equivalent/g | Fetus radioactivity, fold of blood value [1]: 0.01 fold of blood value | Placenta radioactivity [1]: 6.42 μg equivalent/g | Placenta radioactivity, fold of blood value [1]: 2.59 fold of blood value | Blood (LSC) radioactivity [2]: 0.864 μg equivalent/g | Fetus radioactivity [2]: 0.06 μg equivalent/g | Fetus radioactivity, fold of blood value [2]: 0.07 fold of blood value | Placenta radioactivity [2]: 2.86 μg equivalent/g | Placenta radioactivity, fold of blood value [2]: 3.31 fold of blood value | Blood (LSC) radioactivity [3]: 0.282 μg equivalent/g | Fetus radioactivity [3]: 0.07 μg equivalent/g | Fetus radioactivity, fold of blood value [3]: 0.25 fold of blood value | Placenta radioactivity [3]: 1.02 μg equivalent/g | Placenta radioactivity, fold of blood value [3]: 3.62 fold of blood value | Blood (LSC) radioactivity [4]: 0.24 μg equivalent/g | Fetus radioactivity [4]: 0.03 μg equivalent/g | Fetus radioactivity, fold of blood value [4]: 0.13 fold of blood value | Placenta radioactivity [4]: 0.39 μg equivalent/g | Placenta radioactivity, fold of blood value [4]: 1.63 fold of blood value | Brain and spinal tissue penetration (QWBA conclusion) (rats): effectively excluded from the brain and spinal tissues by the blood brain barrier | Radioactivity levels in brain, spinal cord and fetus (rats): < 0.25 fold of blood levels

Source: PMC5598522 (Toxicology Reports, 2014)
